Laboratory results published in paper PMC5390981, “Peptide probes derived from pertuzumab by molecular dynamics modeling for HER2 positive tumor imaging” (PLoS Computational Biology, 2017).
No end group written: not given here.

Key:
HUVEC = experiment: Toxicity of peptides to cells (S4 Fig); assay type: cell-based
SKBR3 = experiment: Toxicity of peptides to cells (S4 Fig); assay type: cell-based
[1] = tested on: subcutaneous SKBR3 tumor xenografts; experiment: In vivo and ex vivo fluorescence imaging of tumor targeting; set-up: species or system Balb/c female nude mice; conditions: for in vivo tumor fluorescence intensity (binding affinity increase) relative to the control Cy5.5: Cy5.5-labeled peptide 1 μM, 200 μL i.v. tail vein, 30 min postinjection, nude mice with SKBR3 xenografts, average n = 3; for ex vivo tumor fluorescence signal compared to controls: dissected tumors 30 min postinjection of Cy5.5-labeled peptide, n = 3
Experimental: Five to six-week-old Balb/c female nude mice were subcutaneously administered approximately 1 × 10^7 SKBR3 cells into the right hind leg, to establish xenografted tumors. Thereafter, tumor size was periodically measured with a caliper, and mice with tumors of 6−8 mm in diameter were selected for the following small animal experiments. Cy5.5–NHS (Lumiprobe) was used to label peptides. Either Cy5.5-peptides or the control Cy5.5 (1 μM, 200 μL) was intravenously injected into tumor-bearing nude mice via the tail vein. The mice were anesthetized and fluorescence signals measured using the small animal in vivo imaging system 30 min postinjection. Three mice were used for each peptide and for control. Near-infrared fluorescence imaging of tumor-bearing nude mice were taken with an exposure time of 50 ms, using the Cy5.5 filter sets (excitation: 673 nm; emission: 707 nm), and the intensities were quantified using the same software. Then, fluorescence images of the main organs and of tumors dissected from nude mice were individually taken as above.

HER2/biotin complex = HER2/biotin complex (Homo sapiens, UniProt P04626); experiment: OBOC peptide library screening with magnetic beads; assay type: binding; conditions: library of 5184 sequences, HER2/biotin and magnetic streptavidin microspheres, 37°C, 2 h each step
From the text: The OBOC peptide library was designed based on binding free energies derived from the MD simulations of single and double mutants that are lower than the HER2/4665 complex. These mutations are in the 4665 fragment of pertuzumab from 55 to 64: EWVADVNPNX55X56X57X58X59X60N61X62X63X64K. According to computational calculations, the V, S, and M mutants have lower energies for X55. This is also the case for G, M, and Y for X56; G, A, and V for X57; S, F, and H for X58; I and R for X59; Y and W for X60; Q and F for X62; R, W, Q, and V for X63; and F and R for X64. The result is a 3*3*3*3*2*2*2*4*2 = 5184 library capacity.
The OBOC library synthesis and screening was performed as per the previously used method. Briefly, HBTU (4 mmol) and Fmoc-amino acid (4 mmol) reagent was dissolved in 0.4 mol/L N-Methyl morpholine in N,N-dimethylformamide and coupled with the solid phase supporting materials for 40 min during the coupling step. A 20% piperidine was used to remove the Fmoc group for 10 min in the deprotection step. During the OBOC library synthesis, the amino acid coupling process was carried out in the “split” step, while the deprotection process was carried out in the “pool” step. After elongation, a trifluoroacetic acid cleavage reagent was introduced to cleave the side chain protection group of each residue. […]

[2] = tested on: SKBR3 cell line with high HER2 expression; experiment: Confocal fluorescence imaging of cells incubated with Cy5.5-labeled peptides; assay type: cell-based; conditions: 50 μM Cy5.5-labeled peptide, 4°C, 20 min
Experimental: Four cell lines (SKBR3, MCF7, MDA-MB-468, and 293A) were seeded at a density of 3000 cells/mL into culture dishes and allowed to culture overnight with 5% CO2 at 37°C. Cell nuclei was stained with 1 mM Hoechst 33342 in 200 μL cell culture medium and incubated at 37°C for 15 min. Then, cells were incubated in culture medium with 50 μM Cy5.5-labeled peptide at 4°C for 20 min. Finally, cells were washed three times with cold PBS for observation. An Olympus FV1000-IX81 confocal-laser scanning microscope was used for confocal fluorescence imaging. An FV5-LAMAR 633 nm laser was used as the excitation source, and the emission wave length was collected at 690 nm. Hoechst 33342 was excited by a FV5-LD405-2 405 nm laser and collected within the range of 422–472 nm. All microscope parameters were identical for all observations of the binding ability of the various peptides.

[3] = target: T1, HER2 protein (human epidermal growth factor receptor 2) (human, UniProt P04626 23-652); experiment: SPR; SPR imaging (SPRi, PlexArray HT); peptides immobilised through an N-terminal cysteine on a bare gold chip, blocked with 5% nonfat milk; HER2 or HSA in PBST flowed at 0.625 to 20 μg/mL; KD from fitting association-dissociation curves; conditions: both partners purified
T1 construct: Human epidermal growth factor receptor 2 (HER2), bought protein; Surmise: the bought protein is probably a soluble extracellular domain, possibly tagged; source: bought: Sino Biological Inc., China

[4] = target: HER2 on cells (SKBR3, high expression; MCF7, medium expression) (human (endogenous in SKBR3), UniProt P04626 23-1255); experiment: cell-based or functional assay

In the case of EWVADVNPNSGGFIYNQYFK [58F63Y], the “toxicity to HUVEC cells” value (HUVEC) is reported as “no toxicity”, the “toxicity to SKBR3 cells” value (SKBR3) is reported as “no toxicity” and the “in vivo tumor fluorescence intensity (binding affinity increase) relative to the control Cy5.5” value [1] is reported as 5.09 fold. For the same molecule, the “ex vivo tumor fluorescence signal compared to controls” value [1] was “significantly high fluorescence signals” and the “OBOC library screening result (bead identified by MALDI-TOF-MS/MS)” value (HER2/biotin complex) was “positive”.

In the case of EWVADVNPNSGGSIYNQRFK [compound 4665], the “toxicity to HUVEC cells” value (HUVEC) is reported as “no toxicity”, the “toxicity to SKBR3 cells” value (SKBR3) is reported as “no toxicity” and the “in vivo tumor fluorescence intensity (binding affinity increase) relative to the control Cy5.5” value [1] is reported as 3.52 fold. For the same molecule, the “ex vivo tumor fluorescence signal compared to controls” value [1] was “significantly high fluorescence signals”.

In the case of “Cy5.5-58F63Y: peptide 58F63Y labeled with Cy5.5 (Cy5.5–NHS) (EWVADVNPNSGGFIYNQYFK; also: Cy5.5 label (via Cy5.5-NHS), position not given here)”, the “fluorescent intensity of Cy5.5-peptides in SKBR3 cells” value [2] is reported as “strongest fluorescence”.

B1: peptide 58F (4665 with Ser58 to Phe) with N-terminal cysteine, for SPRi (peptide)
peptide: CEWVADVNPNSGGFIYNQRFK
notes: a cysteine residue linked to the amino terminal, for attachment to the bare gold chip; numbers count on: pertuzumab (first letter is 46); source: synthetic peptide (Fmoc solid phase synthesis, HPLC purified)
In the case of B1, the Kd [3] is reported as 1.32 µM.

B2: peptide 4665 (pertuzumab fragment Glu46 to Lys65) with N-terminal cysteine, for SPRi (peptide)
peptide: CEWVADVNPNSGGSIYNQRFK
notes: a cysteine residue linked to the amino terminal, for attachment to the bare gold chip; fragment of pertuzumab from Glu46 to Lys65 (beta hairpin); numbers count on: pertuzumab in PDB 1S78; source: synthetic peptide (Fmoc solid phase synthesis, HPLC purified)
In the case of B2, the Kd [3] is reported as 9.86 µM.

B3: peptide 63Y (4665 with Arg63 to Tyr) with N-terminal cysteine, for SPRi (peptide)
peptide: CEWVADVNPNSGGSIYNQYFK
notes: as for B1
B3 was tested, and the Kd [3] was 1.54 µM.

B4: peptide 58F63Y with N-terminal cysteine, for SPRi (peptide)
peptide: CEWVADVNPNSGGFIYNQYFK
notes: as for B1
Work on B4 yielded a Kd [3] of 0.536 µM.

EWVADVNPNSGGFIYNQYFK (also: Cy5.5 label (via Cy5.5-NHS), position not given here) [Cy5.5-labeled peptide 58F63Y] was tested, and the “in vivo fluorescence intensity of SKBR3 tumor xenografts in nude mice 30 min after injection of Cy5.5-58F63Y, relative to the control Cy5.5” value [4] was 5.09 fold.

B5: peptide 55V63Y with N-terminal cysteine, for SPRi (peptide)
peptide: CEWVADVNPNVGGSIYNQYFK
notes: as for B1
B5 was tested, and the Kd [3] was 8.16 µM.

B6: peptide 55V (4665 with Ser55 to Val) with N-terminal cysteine, for SPRi (peptide)
peptide: CEWVADVNPNVGGSIYNQRFK
notes: as for B1
For B6, the Kd [3] was 64.6 µM.
